# Results as given in patent publication US5538987A, “Imidazole ethers having a II antagonist activity” (Istituto Luso Farmaco D'Italia S.p.A., priority 1992, dated 1996).
# What was measured:
# A II receptor [1] = target: T1, A II receptor (Oryctolagus cuniculus, UniProt P34976); experiment: inhibition of the A II-induced contraction in the rabbit aorta; format: cell-based; conditions: in vitro, read-out: pA2 (converted)
# T1 construct: A II-induced contraction in the rabbit aorta; from tissue; host or cells: rabbit aorta
# T1 sequence (P34976 1-359): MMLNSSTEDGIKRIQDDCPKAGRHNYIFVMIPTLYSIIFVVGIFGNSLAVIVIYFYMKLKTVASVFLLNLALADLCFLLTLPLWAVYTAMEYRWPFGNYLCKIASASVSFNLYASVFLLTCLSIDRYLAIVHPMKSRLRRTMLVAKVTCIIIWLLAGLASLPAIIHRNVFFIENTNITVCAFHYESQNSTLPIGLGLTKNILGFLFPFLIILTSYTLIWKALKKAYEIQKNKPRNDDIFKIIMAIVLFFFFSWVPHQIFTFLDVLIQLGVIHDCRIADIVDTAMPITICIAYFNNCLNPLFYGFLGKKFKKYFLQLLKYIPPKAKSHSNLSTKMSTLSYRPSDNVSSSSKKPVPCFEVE
# Source text: (§1) The compounds described in the present invention act as antagonists at the A II receptor level.
# (§2) For the characterization and the evaluation of the effectiveness of the compounds of the invention, in vitro tests (such as the inhibition of the A II-induced contraction in the rabbit aorta and the displacement of ^125 I-Sar^1 -Ile^8 -AT II or [^3 H] AT II in the rat adrenal cortex) and an in vivo test (the inhibition of the A II-induced pressory response in the ganglio-blocked normotensive rat) were selected.
# A II receptor [2] = experiment: receptor binding test: displacement of 125I-Sar1-Ile8-AT II or [3H] AT II in the rat adrenal cortex
# Source text: as §1, §2
SMILES,Kb (A II receptor [1]) [nM],Ki (A II receptor [2]) [nM]
"CCCCc1nc(Cl)c(COCc2occc2C(=O)O)n1Cc1ccc(-c2ccccc2-c2nnn[nH]2)cc1 [2-butyl-5-[(3-carboxyfuran-2-yl)methoxymethyl]-4-chloro-1-[[2'-(1H-tetrazol-5-yl)-1,1'-biphenyl-4-yl]methyl]-1H-imidazole]",1.26,3.2
"CCCCc1nc(Cl)c(COCc2ccccc2C(=O)O)n1Cc1ccc(-c2ccccc2-c2nnn[nH]2)cc1 [ex. 18, 2-butyl-5-[(2-carboxyphenyl)methoxymethyl]-4-chloro-1-[[2'-(1H-tetrazol-5-yl)-1,1'-biphenyl-4-yl]methyl]-1H-imidazole]",0.2,4.4
